Data on two compounds can be found in article PMC6274539, “Photoactivatable Caged Prodrugs of VEGFR-2 Kinase Inhibitors” (Molecules, 2016).

Holding throughout (assay type): biochemical
Experiment [1] concerns the target MST4 (Homo sapiens, UniProt Q9P289). Put plainly: kinase profiling, radioactive filter binding assay. To be noted: 0.1 µM compound, assay duplicates; read-out: residual activity of MST4, mean percentage activity. Here is the method: (§1) The used method was a radioactive filter binding assay using ^33P ATP, for details see references. The substances were dissolved in DMSO at tested concentration of 0.1 µM. The mean percentage residual kinase activity and standard deviations of assay duplicates were determined. Analyses were performed by the International Center for Kinase Profiling at the University of Dundee, UK.

The target of experiment [2] is PRAK (Homo sapiens, UniProt Q8IW41). Put plainly: kinase profiling, radioactive filter binding assay. As to conditions: 0.1 µM compound, assay duplicates; read-out: residual activity of PRAK, mean percentage activity. Here is the method:
as §1

Experiment [3] addresses MKK1 (Homo sapiens, UniProt Q02750). Put plainly: kinase profiling, radioactive filter binding assay. To be noted: 0.1 µM compound, assay duplicates; read-out: residual activity of MKK1, mean percentage activity. As for the experimental part: as §1
Experiment [4] addresses S6K1 (Homo sapiens, UniProt P23443). Put plainly: kinase profiling, radioactive filter binding assay. To be noted: 0.1 µM compound, assay duplicates; read-out: residual activity of S6K1, mean percentage activity. Here is the method: as §1
Experiment [5] addresses P38b MAPK (Homo sapiens, UniProt Q15759). Kind of experiment: kinase profiling, radioactive filter binding assay. To be noted: 0.1 µM compound, assay duplicates; read-out: residual activity of P38b MAPK, mean percentage activity. As for the experimental part:
as §1

Experiment [6] concerns the target FGF-R1 (Homo sapiens, UniProt P11362). Kind of experiment: kinase profiling, radioactive filter binding assay. As to conditions: 0.1 µM compound, assay duplicates; read-out: residual activity of FGF-R1, mean percentage activity. Here is the method: as §1
Experiment [7] deals with BTK (Homo sapiens, UniProt Q06187). Put plainly: kinase profiling, radioactive filter binding assay. To be noted: 0.1 µM compound, assay duplicates; read-out: residual activity of BTK, mean percentage activity. As for the experimental part:
as §1

The test system of experiment [8] is AMPK. Put plainly: kinase profiling, radioactive filter binding assay. To be noted: 0.1 µM compound, assay duplicates. As for the experimental part: as §1
For experiment [9], the target named is IRR (Homo sapiens, UniProt P14616). Kind of experiment: kinase profiling, radioactive filter binding assay. To be noted: 0.1 µM compound, assay duplicates; read-out: residual activity of IRR, mean percentage activity. As for the experimental part:
as §1

Experiment [10] deals with CHK2 (Homo sapiens, UniProt O96017). Kind of experiment: kinase profiling, radioactive filter binding assay. To be noted: 0.1 µM compound, assay duplicates; read-out: residual activity of CHK2, mean percentage activity. As for the experimental part:
as §1

Experiment [11] deals with CAMKKb (Homo sapiens, UniProt Q96RR4). Put plainly: kinase profiling, radioactive filter binding assay. To be noted: 0.1 µM compound, assay duplicates; read-out: residual activity of CAMKKb, mean percentage activity. As for the experimental part: as §1
Experiment [12] concerns the target p38s MAPK (Homo sapiens, UniProt O15264). Kind of experiment: kinase profiling, radioactive filter binding assay. To be noted: 0.1 µM compound, assay duplicates; read-out: residual activity of p38s MAPK, mean percentage activity. As for the experimental part: as §1
Experiment [13] addresses IKK epsilon (14231) (Homo sapiens, UniProt Q14164). Kind of experiment: kinase profiling, radioactive filter binding assay. To be noted: 0.1 µM compound, assay duplicates; read-out: residual activity of IKK epsilon (14231), mean percentage activity. As for the experimental part:
as §1

Experiment [14] has as its target PAK4 (Homo sapiens, UniProt O96013). Kind of experiment: kinase profiling, radioactive filter binding assay. To be noted: 0.1 µM compound, assay duplicates; read-out: residual activity of PAK4, mean percentage activity. As for the experimental part:
as §1

Experiment [15] deals with GSK3b (Homo sapiens, UniProt P49841). Kind of experiment: kinase profiling, radioactive filter binding assay. As to conditions: 0.1 µM compound, assay duplicates; read-out: residual activity of GSK3b, mean percentage activity. As for the experimental part: as §1
The target in experiment [16] is NEK2a (Homo sapiens, UniProt P51955). Kind of experiment: kinase profiling, radioactive filter binding assay. As to conditions: 0.1 µM compound, assay duplicates; read-out: residual activity of NEK2a, mean percentage activity. As for the experimental part:
as §1

In experiment [17] the target is MST2 (Homo sapiens, UniProt Q13188). Kind of experiment: kinase profiling, radioactive filter binding assay. To be noted: 0.1 µM compound, assay duplicates; read-out: residual activity of MST2, mean percentage activity. As for the experimental part: as §1
Experiment [18] addresses CHK1 (Homo sapiens, UniProt O14757). Kind of experiment: kinase profiling, radioactive filter binding assay. As to conditions: 0.1 µM compound, assay duplicates; read-out: residual activity of CHK1, mean percentage activity. As for the experimental part: as §1
Experiment [19] has as its target IKKe (Homo sapiens, UniProt Q14164). Kind of experiment: kinase profiling, radioactive filter binding assay. To be noted: 0.1 µM compound, assay duplicates; read-out: residual activity of IKKe, mean percentage activity. Here is the method: as §1
Experiment [20] addresses PKC zeta (Homo sapiens, UniProt Q05513). Put plainly: kinase profiling, radioactive filter binding assay. To be noted: 0.1 µM compound, assay duplicates; read-out: residual activity of PKC zeta, mean percentage activity. Here is the method: as §1
Experiment [21] concerns the target PLK1 (Okadaic Acid) (Homo sapiens, UniProt P53350). Put plainly: kinase profiling, radioactive filter binding assay. To be noted: 0.1 µM compound, assay duplicates; read-out: residual activity of PLK1 (Okadaic Acid), mean percentage activity. As for the experimental part: (§2) To compare the active inhibitors 1 and 3, a selectivity profile over 79 kinases was recorded. The residual kinase activities are presented as a heatmap (Figure 6, for raw data see Supplementary Table S1).
(§3) Compounds 1 and 3 were screened against 79 kinases. The used method was a radioactive filter binding assay using ^33P ATP, for details see references. The substances were dissolved in DMSO at tested concentration of 0.1 µM. The mean percentage residual kinase activity and standard deviations of assay duplicates were determined. Analyses were performed by the International Center for Kinase Profiling at the University of Dundee, UK.

The target in experiment [22] is SmMLCK (Homo sapiens, UniProt Q15746). Put plainly: kinase profiling, radioactive filter binding assay. To be noted: 0.1 µM compound, assay duplicates; read-out: residual activity of SmMLCK, mean percentage activity. Here is the method: as §2, §3
Experiment [23] deals with T1, VEGFR-2 (Homo sapiens, UniProt P35968).
T1 construct: determined using VEGFR-2 protein kinase by a radiometric ^33PanQinase® assay; purchased ProQinase (Freiburg, Germany)
Put plainly: radiometric 33PanQinase VEGFR-2 kinase assay (ProQinase). As to conditions: 10 semi-log concentrations, single samples, 1% DMSO. As for the experimental part:
As predicted by molecular modeling, insertion of the protecting group DMNB should diminish the inhibitory activity both of the maleimide 1 and the carbazole 3. […] The IC50 values towards VEGFR-2 were determined (Table 1).
The VEGFR-2 IC50 profile for 1, 3, 4 and 5 was determined using VEGFR-2 protein kinase by a radiometric ^33PanQinase® assay. […] Prior to testing, the compounds were dissolved to prepare 1 × 10^−2 M stock solutions in 100% DMSO. The final DMSO concentration in the reaction cocktails was 1% in all cases. Analyses were performed by ProQinase (Freiburg, Germany).

MST4, sequence (Q9P289 whole entry): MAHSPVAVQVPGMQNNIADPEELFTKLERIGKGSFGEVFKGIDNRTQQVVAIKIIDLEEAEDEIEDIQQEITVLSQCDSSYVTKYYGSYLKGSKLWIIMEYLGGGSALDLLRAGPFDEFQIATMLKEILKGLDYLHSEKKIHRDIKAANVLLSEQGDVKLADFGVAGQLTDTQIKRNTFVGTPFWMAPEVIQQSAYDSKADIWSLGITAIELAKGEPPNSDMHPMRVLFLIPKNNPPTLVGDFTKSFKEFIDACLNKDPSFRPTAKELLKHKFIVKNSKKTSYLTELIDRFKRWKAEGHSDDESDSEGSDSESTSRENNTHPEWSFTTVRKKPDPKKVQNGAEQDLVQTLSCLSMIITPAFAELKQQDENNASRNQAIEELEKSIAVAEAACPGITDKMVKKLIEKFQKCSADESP
CHK2, sequence (O96017 whole entry): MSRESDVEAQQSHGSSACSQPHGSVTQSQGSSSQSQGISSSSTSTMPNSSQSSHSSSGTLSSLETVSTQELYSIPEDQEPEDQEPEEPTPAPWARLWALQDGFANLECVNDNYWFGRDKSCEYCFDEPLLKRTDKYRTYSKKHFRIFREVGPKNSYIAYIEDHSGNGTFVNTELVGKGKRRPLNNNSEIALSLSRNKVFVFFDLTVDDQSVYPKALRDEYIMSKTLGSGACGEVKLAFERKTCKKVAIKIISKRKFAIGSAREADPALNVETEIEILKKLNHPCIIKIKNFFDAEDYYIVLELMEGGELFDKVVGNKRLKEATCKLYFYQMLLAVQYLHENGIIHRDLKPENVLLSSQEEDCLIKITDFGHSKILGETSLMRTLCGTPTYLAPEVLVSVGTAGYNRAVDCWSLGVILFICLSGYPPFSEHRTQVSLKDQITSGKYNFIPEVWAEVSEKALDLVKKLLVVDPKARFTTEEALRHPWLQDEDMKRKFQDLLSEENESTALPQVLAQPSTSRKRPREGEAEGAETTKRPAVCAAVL
IRR, sequence (P14616 27-1297): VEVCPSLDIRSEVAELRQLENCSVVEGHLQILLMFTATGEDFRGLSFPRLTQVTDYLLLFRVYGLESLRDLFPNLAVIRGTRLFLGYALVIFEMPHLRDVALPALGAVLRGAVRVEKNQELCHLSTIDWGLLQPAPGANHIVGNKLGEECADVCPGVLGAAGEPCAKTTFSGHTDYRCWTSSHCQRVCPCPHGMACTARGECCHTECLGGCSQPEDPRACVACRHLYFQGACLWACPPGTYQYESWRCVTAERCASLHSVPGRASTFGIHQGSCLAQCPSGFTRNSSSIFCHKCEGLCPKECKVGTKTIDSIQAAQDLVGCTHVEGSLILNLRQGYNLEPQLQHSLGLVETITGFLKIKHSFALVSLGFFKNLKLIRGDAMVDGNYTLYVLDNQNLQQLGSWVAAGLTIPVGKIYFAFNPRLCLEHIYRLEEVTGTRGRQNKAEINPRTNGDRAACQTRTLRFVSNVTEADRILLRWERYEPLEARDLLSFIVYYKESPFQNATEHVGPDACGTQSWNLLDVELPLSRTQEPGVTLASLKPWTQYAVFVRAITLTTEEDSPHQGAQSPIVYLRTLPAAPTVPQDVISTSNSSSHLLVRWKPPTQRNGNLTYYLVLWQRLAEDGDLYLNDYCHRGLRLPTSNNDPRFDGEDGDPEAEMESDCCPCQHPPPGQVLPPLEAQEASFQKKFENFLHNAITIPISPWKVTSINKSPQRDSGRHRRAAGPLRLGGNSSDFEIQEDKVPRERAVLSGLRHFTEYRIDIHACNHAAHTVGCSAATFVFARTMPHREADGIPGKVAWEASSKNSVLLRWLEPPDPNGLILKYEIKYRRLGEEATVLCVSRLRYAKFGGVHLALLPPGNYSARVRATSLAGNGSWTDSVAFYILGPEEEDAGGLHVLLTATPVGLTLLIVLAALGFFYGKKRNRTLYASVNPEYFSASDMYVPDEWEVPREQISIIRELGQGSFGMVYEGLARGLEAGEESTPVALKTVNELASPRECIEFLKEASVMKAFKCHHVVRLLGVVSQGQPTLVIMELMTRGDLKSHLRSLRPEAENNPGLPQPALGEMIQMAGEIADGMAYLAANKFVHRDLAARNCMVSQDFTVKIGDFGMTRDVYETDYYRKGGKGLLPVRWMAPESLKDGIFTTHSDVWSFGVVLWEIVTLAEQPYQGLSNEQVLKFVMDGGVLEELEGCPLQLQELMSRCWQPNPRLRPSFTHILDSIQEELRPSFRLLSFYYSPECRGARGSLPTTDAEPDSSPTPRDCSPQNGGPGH
CHK1, sequence (O14757 whole entry): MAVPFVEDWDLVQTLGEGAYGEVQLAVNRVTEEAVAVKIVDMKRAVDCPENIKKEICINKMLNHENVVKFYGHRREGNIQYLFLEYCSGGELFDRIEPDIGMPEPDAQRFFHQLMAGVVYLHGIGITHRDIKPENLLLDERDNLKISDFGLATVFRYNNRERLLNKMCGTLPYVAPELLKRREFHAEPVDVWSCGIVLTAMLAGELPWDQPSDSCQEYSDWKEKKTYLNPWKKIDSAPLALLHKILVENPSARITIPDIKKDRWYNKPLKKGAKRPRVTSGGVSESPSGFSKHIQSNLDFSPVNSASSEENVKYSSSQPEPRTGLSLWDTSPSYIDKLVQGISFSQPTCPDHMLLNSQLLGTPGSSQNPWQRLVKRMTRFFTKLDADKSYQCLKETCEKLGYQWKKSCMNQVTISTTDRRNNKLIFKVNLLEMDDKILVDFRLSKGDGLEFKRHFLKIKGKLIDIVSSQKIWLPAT
PLK1 (Okadaic Acid), sequence (P53350 whole entry): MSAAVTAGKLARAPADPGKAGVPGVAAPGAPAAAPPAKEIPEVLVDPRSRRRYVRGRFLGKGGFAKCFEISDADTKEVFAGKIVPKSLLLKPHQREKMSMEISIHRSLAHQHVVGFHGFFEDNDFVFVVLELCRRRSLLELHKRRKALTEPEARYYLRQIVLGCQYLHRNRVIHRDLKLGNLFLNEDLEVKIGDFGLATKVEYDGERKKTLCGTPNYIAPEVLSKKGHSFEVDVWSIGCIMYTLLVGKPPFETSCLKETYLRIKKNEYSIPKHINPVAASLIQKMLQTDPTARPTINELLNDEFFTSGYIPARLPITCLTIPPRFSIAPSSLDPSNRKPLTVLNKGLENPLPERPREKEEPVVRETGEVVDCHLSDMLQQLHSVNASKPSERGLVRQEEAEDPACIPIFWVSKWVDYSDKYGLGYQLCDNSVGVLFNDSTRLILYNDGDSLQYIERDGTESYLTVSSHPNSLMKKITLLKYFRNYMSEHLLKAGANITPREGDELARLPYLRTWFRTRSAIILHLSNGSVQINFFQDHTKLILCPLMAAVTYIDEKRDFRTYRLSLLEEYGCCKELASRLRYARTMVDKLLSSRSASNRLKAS
BTK, sequence (Q06187 whole entry): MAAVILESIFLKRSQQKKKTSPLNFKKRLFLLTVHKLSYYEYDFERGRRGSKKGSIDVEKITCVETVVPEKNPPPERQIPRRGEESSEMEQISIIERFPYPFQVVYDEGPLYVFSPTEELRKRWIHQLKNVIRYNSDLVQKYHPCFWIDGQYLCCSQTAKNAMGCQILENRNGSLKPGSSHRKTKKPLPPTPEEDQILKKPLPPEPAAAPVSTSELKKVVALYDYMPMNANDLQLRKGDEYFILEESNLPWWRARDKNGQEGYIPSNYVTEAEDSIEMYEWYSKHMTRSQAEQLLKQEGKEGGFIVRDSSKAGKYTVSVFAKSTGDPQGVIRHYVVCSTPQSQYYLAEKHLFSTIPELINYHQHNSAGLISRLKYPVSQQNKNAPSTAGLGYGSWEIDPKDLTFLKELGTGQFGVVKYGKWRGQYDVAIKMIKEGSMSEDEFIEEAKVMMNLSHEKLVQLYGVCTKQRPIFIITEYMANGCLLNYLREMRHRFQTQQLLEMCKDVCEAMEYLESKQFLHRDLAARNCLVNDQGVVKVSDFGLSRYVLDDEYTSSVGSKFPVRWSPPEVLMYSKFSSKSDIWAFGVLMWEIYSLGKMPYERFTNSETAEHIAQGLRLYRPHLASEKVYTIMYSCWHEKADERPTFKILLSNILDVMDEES
PAK4, sequence (O96013 whole entry): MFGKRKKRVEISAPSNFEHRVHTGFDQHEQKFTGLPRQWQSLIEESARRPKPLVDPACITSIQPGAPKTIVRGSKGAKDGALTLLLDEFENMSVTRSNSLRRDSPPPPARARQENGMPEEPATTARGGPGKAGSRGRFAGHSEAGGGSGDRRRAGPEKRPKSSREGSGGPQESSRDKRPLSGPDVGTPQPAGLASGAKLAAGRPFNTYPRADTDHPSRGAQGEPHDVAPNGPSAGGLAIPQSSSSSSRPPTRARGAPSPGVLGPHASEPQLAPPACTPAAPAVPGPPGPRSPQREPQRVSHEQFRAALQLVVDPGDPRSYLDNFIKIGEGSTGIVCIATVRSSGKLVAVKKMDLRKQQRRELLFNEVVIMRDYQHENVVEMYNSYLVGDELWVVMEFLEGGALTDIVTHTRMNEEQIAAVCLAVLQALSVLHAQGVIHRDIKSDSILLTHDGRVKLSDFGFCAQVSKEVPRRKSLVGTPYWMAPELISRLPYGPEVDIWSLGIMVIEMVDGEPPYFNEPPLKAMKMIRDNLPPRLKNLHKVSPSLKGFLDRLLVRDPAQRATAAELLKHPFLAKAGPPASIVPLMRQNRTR
p38s MAPK, sequence (O15264 whole entry): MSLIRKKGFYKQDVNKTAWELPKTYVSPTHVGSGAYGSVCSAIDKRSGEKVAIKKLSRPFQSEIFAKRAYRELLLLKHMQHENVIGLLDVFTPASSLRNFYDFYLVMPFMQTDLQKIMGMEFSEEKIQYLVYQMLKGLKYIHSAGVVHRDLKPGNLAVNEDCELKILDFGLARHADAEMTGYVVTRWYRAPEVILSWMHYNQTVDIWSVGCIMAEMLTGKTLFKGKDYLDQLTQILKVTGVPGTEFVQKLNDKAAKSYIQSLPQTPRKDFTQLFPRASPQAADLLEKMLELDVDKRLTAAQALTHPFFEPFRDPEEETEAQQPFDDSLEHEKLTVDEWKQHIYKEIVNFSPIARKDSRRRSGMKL

Take `COc1cc(C2=C(c3c[nH]c4ccccc34)C(=O)NC2=O)cc(OC)c1OC` [Compound 1, 3-(1H-Indol-3-yl)-4-(3,4,5-trimethoxyphenyl)-1H-pyrrole-2,5-dione]: the remaining activity at 0.1 µM in experiment [1] is 94%; in experiment [2], 91%; in experiment [3] it was 54%; in experiment [4], 65%; in [5], 86%; in [6] it was 69%. In addition, the remaining activity at 0.1 µM in experiment [7] was 93%; in experiment [9] it was 58%; in [10] it was 64%; in experiment [11], 81%; in experiment [12], 108%; in [13] it was 85%. In addition, the remaining activity at 0.1 µM was determined as 75% in experiment [14]; 21% in experiment [15]; 87% in [16]; 53% in experiment [17]; 72% in experiment [18]; 80% in experiment [19]. Moreover, the remaining activity at 0.1 µM in experiment [20] is 102%; in experiment [21] it was 85%; in experiment [22] it was 60%. The “residual activity of AMPK, mean percentage activity” value in experiment [8] stood at 78%. In experiment [23], this compound came in with an IC50 of 5 nM.

As for `COc1cc2c3c(c4c5ccccc5[nH]c4c2c(OC)c1OC)C(=O)NC3=O` [Compound 3, 5,6,7-Trimethoxybenzo[a]pyrrolo[3,4-c]carbazole-1,3(2H,8H)-dione], the remaining activity at 0.1 µM came to 69% in experiment [1]; 85% in experiment [2]; 67% in [3]; 28% in experiment [4]; 89% in experiment [5]; 92% in experiment [6]. The remaining activity at 0.1 µM in [7] amounted to 90%; in experiment [9] it was 41%; in [10], 63%; in experiment [11], 49%; in experiment [12], 90%; in experiment [13], 94%. Moreover, the remaining activity at 0.1 µM in experiment [14] stood at 55%; in experiment [15] it was 5%; in [16] it was 91%; in experiment [17], 24%; in [18], 34%; in experiment [19] it was 63%. Further, the remaining activity at 0.1 µM in experiment [20] amounted to 98%; in experiment [21], 83%; in experiment [22], 30%. For the same compound, the “residual activity of AMPK, mean percentage activity” value in experiment [8] is on record as 75%. The IC50 in experiment [23] was 152 nM.
